The structures appear in SMILES notation.

T1 sequence (Q9QYN8 whole entry): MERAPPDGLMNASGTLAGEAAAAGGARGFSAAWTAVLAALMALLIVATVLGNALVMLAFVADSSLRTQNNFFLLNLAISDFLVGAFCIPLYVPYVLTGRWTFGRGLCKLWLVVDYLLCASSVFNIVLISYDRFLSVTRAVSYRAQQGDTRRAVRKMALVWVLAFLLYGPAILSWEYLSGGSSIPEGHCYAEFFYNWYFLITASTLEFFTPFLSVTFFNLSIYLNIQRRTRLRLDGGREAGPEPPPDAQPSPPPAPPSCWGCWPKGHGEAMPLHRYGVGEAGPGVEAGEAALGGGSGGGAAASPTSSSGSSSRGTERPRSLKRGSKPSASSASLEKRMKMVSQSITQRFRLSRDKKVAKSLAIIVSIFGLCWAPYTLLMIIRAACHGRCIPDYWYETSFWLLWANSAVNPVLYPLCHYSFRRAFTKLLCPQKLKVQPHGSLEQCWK

The experiment has as its target T1, rat histamine H3 receptors (Rattus norvegicus, UniProt Q9QYN8).
T1 construct: Frozen rat frontal brain or frozen human post-mortem frontal brain is homogenized; from tissue; host or cells: rat frontal brain membranes
Description: Rat H3 binding (3H-N-methylhistamine displacement, frontal brain membranes). The following applies: radioligand 1 nM 3H-N-methylhistamine, 1-hour incubation, read-out: Rat H3 activity (Kj). The method, then:
The in vitro affinity of the compounds in the present invention at the rat or human histamine H3 receptors can be determined according to the following procedure. Frozen rat frontal brain or frozen human post-mortem frontal brain is homogenized in 20 volumes of cold 50 mM Tris HCl containing 2 mM MgCl2 (pH to 7.4 at 4° C.). The homogenate is then centrifuged at 45,000 G for 10 minutes. The supernatant is decanted and the membrane pellet re-suspended by Polytron in cold 50 mM Tris HCl containing 2 mM MgCl2 (pH to 7.4 at 4 degrees C.) and centrifuged again. The final pellet is re-suspended in 50 mM Tris HCl containing 2 mM MgCl2 (pH to 7.4 at 25 degrees C.) at a concentration of 12 mg/mL. Dilutions of compounds are made in 10% DMSO/50 mM Tris buffer (pH 7.4) (at 10× final concentration, so that the final DMSO concentration is 1%). Incubations are initiated by the addition of membranes (200 microliters) to 96 well V-bottom polypropylene plates containing 25 microliters of drug dilutions and 25 microliters of radioligand (1 nM final concentration ^3H-N-methylhistamine). After a 1-hour incubation, assay samples are rapidly filtered through Whatman GF/B filters and rinsed with ice-cold 50 mM Tris buffer (pH 7.4) using a Skatron cell harvester. Radioactivity is quantified using a BetaPlate scintillation counter.
As for `CC(=O)c1ccc(CN2C[C@@H]3[C@@H](COCCCN4CCCCC4)[C@@H]3C2)cc1` [Example 2, (1S,5R,6R)-1-{4-[6-(3-Piperidin-1-ylpropoxymethyl)-3-azabicyclo[3.1.0]hex-3-ylmethyl]-phenyl}-ethanone], the Ki came to 116 nM.

As for `c1ccc(CCN2C[C@@H]3[C@@H](COCCCN4CCCCC4)[C@@H]3C2)cc1` [Example 3, (1S,5R,6R)-3-Phenethyl-6-(3-piperidin-1-ylpropoxymethyl)-3-azabicyclo[3.1.0]-hexane], the Ki stood at 78 nM. `c1ccc(Oc2cccc(CN3C[C@@H]4[C@@H](COCCCN5CCCCC5)[C@@H]4C3)c2)cc1` [Example 14, (1S,5R,6R)-3-(3-phenoxybenzyl)-6-(3-piperidin-1-ylpropoxymethyl)-3-azabicyclo[3.1.0]hexane]: the Ki turned out to be 51 nM.

Turning to `c1ccc(COc2cccc(CN3C[C@@H]4[C@@H](COCCCN5CCCCC5)[C@@H]4C3)c2)cc1` [Example 15, (1S,5R,6R)-3-(3-benzyloxybenzyl)-6-(3-piperidin-1-ylpropoxymethyl)-3-azabicyclo[3.1.0]hexane], the Ki came out at 41 nM. The figure for `c1ccc(-c2ccc(CN3C[C@@H]4[C@@H](COCCCN5CCCCC5)[C@@H]4C3)cc2)cc1` [Example 17, (1S,5R,6R)-3-biphenyl-4-ylmethyl-6-(3-piperidin-1-ylpropoxymethyl)-3-azabicyclo[3.1.0]hexane] is 32 nM; for `c1ccc(Oc2ccc(CN3C[C@@H]4[C@@H](COCCCN5CCCCC5)[C@@H]4C3)cc2)cc1` [Example 30, (1S,5R,6R)-3-(4-phenoxybenzyl)-6-(3-piperidin-1-ylpropoxymethyl)-3-azabicyclo[3.1.0]hexane] it is 51 nM; for `Fc1ccc(Oc2ccc(CN3C[C@@H]4[C@@H](COCCCN5CCCCC5)[C@@H]4C3)cc2)cc1` [Example 47, (1R,5S,6R)-3-[4-(4-fluorophenoxy)-benzyl]-6-(3-piperidin-1-ylpropoxymethyl)-3-azabicyclo[3.1.0]hexane] it is 43 nM. Then `CC(=O)Nc1ccc(CN2C[C@@H]3[C@@H](COCCCN4CCCCC4)[C@@H]3C2)cc1` [Example 49, N-{4-[(1R,5S,6R)-6-(3-piperidin-1-ylpropoxymethyl)-3-azabicyclo[3.1.0]hex-3-ylmethyl]-phenyl}-acetamide], with 45 nM.

Turning to `O=C1NCCN1c1ccc(CN2C[C@@H]3[C@@H](COCCCN4CCCCC4)[C@@H]3C2)cc1` [Example 51, 1-{4-[(1R,5S,6R)-6-(3-piperidin-1-ylpropoxymethyl)-3-azabicyclo[3.1.0]hex-3-ylmethyl]-phenyl}-imidazolidin-2-one], the Ki was found to be 58 nM. As for `COc1ccc(-c2ccc(CN3C[C@@H]4[C@@H](COCCCN5CCCCC5)[C@@H]4C3)cc2)cc1` [Example 57, (1R,5S,6R)-3-(4′-methoxybiphenyl-4-ylmethyl)-6-(3-piperidin-1-ylpropoxymethyl)-3-azabicyclo[3.1.0]hexane], the Ki came out at 30 nM. Then `c1cncc(-c2ccc(CN3C[C@@H]4[C@@H](COCCCN5CCCCC5)[C@@H]4C3)cc2)c1` [Example 67, (1R,5S,6R)-6-(3-piperidin-1-ylpropoxymethyl)-3-(4-pyridin-3-ylbenzyl)-3-azabicyclo[3.1.0]hexane], with 63 nM; and `FC(F)C(F)(F)Oc1ccc(CN2C[C@@H]3[C@@H](COCCCN4CCCCC4)[C@@H]3C2)cc1` [Example 69, (1R,5S,6R)-6-(3-piperidin-1-ylpropoxymethyl)-3-[4-(1,1,2,2-tetrafluoroethoxy)-benzyl]-3-azabicyclo[3.1.0]hexane], with 53 nM. For `CC(C)COc1ccc(CN2C[C@@H]3[C@@H](COCCCN4CCCCC4)[C@@H]3C2)cc1` [Example 70, (1R,5S,6R)-3-(4-isobutoxybenzyl)-6-(3-piperidin-1-ylpropoxymethyl)-3-azabicyclo[3.1.0]hexane], the Ki was determined as 69 nM. Turning to `c1ccc(CN2C[C@@H]3[C@@H](COCCCN4CCCCC4)[C@@H]3C2)cc1` [Int. 3, (1S,5R,6R)-3-Benzyl-6-(3-piperidin-1-ylpropoxymethyl)-3-azabicyclo[3.1.0]hexane], the Ki was 86 nM.

The record behind these values is patent US20060047114A1, “Azabicyclic amine histamine-3 receptor antagonists” (Pfizer Inc, priority 2004, published 2006).
